Several values for one entry are separate records, joined by “and”; a condition that tells them apart may be missing. Equal values may be shown once. Marks after values point to notes of the source that are not given here.
Experiments:
[1] = test system: human renal cell adenocarcinoma (786-O cell line); assay: Rat 786-O xenograft: H&E and immunohistochemical evaluation (viable carcinoma size, necrosis, CD11b/CD68 infiltrate, TLS); assay type: in vivo, Sprague-Dawley Rag2; Il2rg null (SRG) rat
Description: Tissue Collection: Primary Tumor (Inoculation site)—A final tumor measurement was taken prior to excision. Tumors were weighed after excision. Approximately ½ of each tumor (based on visual assessment) was flash frozen in 2-methylbutane on dry ice, the tumor piece was weighed when possible before it is flash frozen. The remaining was fixed in 10% neutral buffered formalin. Tumors were also collected from animals not reaching enrollment volume. Secondary Tumors—Any organ with visible tumors were collected and fixed in 10% neutral buffered formalin. Formalin fixed tissues were stored at room temperature. Frozen tissues were stored at −80° C. All tissue was stored for up to 3 months. Pictures of all tumors; primary and secondary if present, were taken.
Microscopic Examination: Tissues fixed with 10% NBF were embedded in paraffin. Each tumor was cut into 2-3 pieces and embedded and sectioned together.

[2] = test system: UM-UC-3 bladder cancer cell line; assay: Human bladder cancer (UM-UC-3) mouse xenograft study: tumor volume; assay type: in vivo, Hsd:Athymic Nude-Foxn1nu nude mice; conditions: Docetaxel IV 30 mg/kg, 3 cycles
Procedure: (§1) Tumor volume was determined with calipers. […] Animals were weighed 2×/week.
At day 18 after tumor implant, when average tumor size was between 50-325 mm^3, animals were sorted into five groups with equal average tumor sizes and were treated as shown in Table 25 below.
The second treatments (2nd cycle) occurred 7 days following first treatment (1st cycle) and third treatments (3rd cycle) occurred 14 days following the first treatment. The docetaxel solution IV was administered via the tail vein.
Vehicle (Control): Diluted 1 ml of the 1% Polysorbate 80/8% Ethanol in normal saline (0.9% Sodium Chloride for Injection) reconstitution solution with 1.5 mL of normal saline (0.9% Sodium Chloride for Injection, USP). […] Vigorously hand shook the vial with inversions for 1 minute. […] Allowed the suspension to sit undisturbed for at least 5 minutes to reduce entrapped air and foam. […] Vortexed to mix.

[3] = UM-UC-3 mouse xenograft study: body weight and peripheral neuropathy; assay type: in vivo, Hsd:Athymic Nude-Foxn1nu nude mice; conditions: Docetaxel IV 3 cycles
Procedure: as §1

[4] = test system: UM-UC-3 bladder cancer cell line; assay: UM-UC-3 mouse xenograft study: H&E histopathology (viable carcinoma size on slide, necrosis, TLS); assay type: in vivo, Hsd:Athymic Nude-Foxn1nu nude mice
[5] = test system: UM-UC-3 bladder cancer cell line; assay: UM-UC-3 mouse xenograft study: immunohistochemistry (F4/80, CD68 macrophage infiltrate, CD45R); assay type: in vivo, Hsd:Athymic Nude-Foxn1nu nude mice; conditions: IV Docetaxel 3 cycles
Renca tumor cells [6] = assay: Renca syngeneic xenograft study: primary tumor volume (groups 1-7); assay type: in vivo, female BALB/c mice; conditions: IV docetaxel Day 1 (10 mg/kg) and Day 11 (5 mg/kg)
Procedure: (§2) The schedule in Table 39 was followed.
All treatments were initiated on the same day.
(§3) Cell Injection Volume: 0.1 mL/mouse. Age at Start Date: 8 to 12 weeks. […] Body Weight: 5/2 then tiwk to end. Caliper Measurement: tiwk to end. Double caliper measurements were performed for Groups 8-10. […] The group was not euthanized and recovery was allowed.
(§4) Endpoints: Groups 1-7: Endpoint TGI. Animals were monitored as a group.

Renca tumor cells [7] = assay: Renca syngeneic xenograft study: untreated secondary tumor growth (groups 8-10); assay type: in vivo, female BALB/c mice; conditions: IV docetaxel; second Renca injection day 15
Procedure: as §2, §3, §4

[8] = test system: immune cells in the blood; assay: Renca syngeneic xenograft study: flow cytometry of blood (CD45+, CD4+, CD8+, Treg, MDSC, M1, M2); assay type: in vivo, female BALB/c mice; conditions: IV Docetaxel, individual animals
Procedure: Blood Collection: Collected full volume blood by terminal cardiac puncture under isoflurane anesthesia. Processed blood for: Whole Blood: anti-coagulant—K2EDTA, preservation—Cooled 4° C., shipping condition—4° C. (wet ice). Retained at CRL-NC for flow cytometry. See Flow panel in Table 40 below.
(§5) Peripheral blood and tumor tissue were collected for analysis via flow cytometry. Cell types analyzed included T-Cells: CD4+, CD8+ (Tumor Suppression); Treg (Tumor Promotion); M1 Macrophages (Tumor Suppression); M2 Macrophages (Tumor Promotion); and M2 Macrophages (Tumor Promotion).

[9] = test system: immune cells in tumor tissue; assay: Renca syngeneic xenograft study: flow cytometry of tumor tissue; assay type: in vivo, female BALB/c mice; conditions: IV docetaxel, individual animal
Procedure: Organ Collection: Tumor (divide into 2 parts). […] Sent to laboratory for IHC staining. Part 2: preservation—processed to single cell suspension, shipping condition—4° C. (wet ice). Retained at CRL-NC for flow cytometry. See Flow panel in Table 40 below. Tumor preservation for early euthanasia in Groups 2-10: Excised tumor and surrounding area from the mammary fat pad area (cranial) to just past tumor (caudal). The region included the inguinal lymph node. Sectioned this sample every 4 mm from the cranial to caudal end and enclosed in separate cassettes labeled in order.
as §5

[10] = IV Docetaxel 3 cycles, 2 animals

CC(=O)O[C@@]12CO[C@@H]1C[C@H](O)[C@@]1(C)C(=O)[C@H](O)C3=C(C)[C@@H](OC(=O)[C@H](O)[C@@H](NC(=O)OC(C)(C)C)c4ccccc4)C[C@@](O)([C@@H](OC(=O)c4ccccc4)[C@H]21)C3(C)C [Doce]
Number of animals with <5% of tissue showing necrosis ([1]; IV Doce, 2 animals): 2
Number of animals with Mild lymphohistiocytic infiltrate density ([1]; IV Doce, 2 animals, H/E and CD11b staining, semi quantitative): 2

CC(=O)O[C@@]12CO[C@@H]1C[C@H](O)[C@@]1(C)C(=O)[C@H](O)C3=C(C)[C@@H](OC(=O)[C@H](O)[C@@H](NC(=O)OC(C)(C)C)c4ccccc4)C[C@@](O)([C@@H](OC(=O)c4ccccc4)[C@H]21)C3(C)C [Docetaxel, docetaxel]
efficacy in relation to initial tumor size [2]: somewhat effective at treating small tumors, but not very effective in treating large tumors
tumor volumes over the study (61 days), after an initial decrease [2]: subsequently increased
initial animal weight loss compared with nDoce IT 1, 2, 3 cycles [3]: generally greater
peripheral neuropathy compared with nDoce IT 3 cycles [3]: greater signs of peripheral neuropathy
General histological observations (H&E) ([4]; Docetaxel Solution IV 3 cycles): many viable appearing tumor masses with some macrophage and occasional lymphocytic response along with some tumor necrosis
Maximum size of viable invasive carcinoma on the slide >10 mm (animals) [4, 10]: 2*
Number of animals with 11-50% of tumor showing necrosis [4, 10]: 1
Number of animals with 50-90% of tumor showing necrosis [4, 10]: 1
Maximum tumor size on slide (mm) ([4]; IV Docetaxel 3 cycles, individual animals B1, B3): 15 mm and 11 mm
maximum dimension of tumor mass on the slide, individual cases ([4]; Intravenous Docetaxel 3 cycles, 2 cases): 11 mm and 15 mm
geographic tumor cell necrosis, share of the tumor area, individual cases ([4]; Intravenous Docetaxel 3 cycles, cases B1, B3): 11-50% and 50-90%
F4/80 immunohistochemistry observation (FIG. 87) [5]: Very little tumor cell destruction and few scattered mononuclear immune cells among vast number of viable tumor cells
Macrophage infiltrate density: Mild (animals) ([5]; 2 animals, H&E and CD68): 2
histology compared with the vehicle control (FIG. 93) ([1]; Docetaxel (IV) 3 cycles, female rat): no difference
Number of animals with residual viable carcinoma >10 mm ([1]; IV docetaxel, 2 animals, maximum dimension on slide): 2
residual viable carcinoma nodules, size on the slide ([1]; both IV docetaxel animals (3 cycles)): greater than 10 mm
tumor volume compared to vehicle (Renca tumor cells [6]): No difference in tumor volume
growth rate of the secondary Renca tumors (Renca tumor cells [7]): did not reduce the growth rate of the secondary Renca tumors
CD45 (% of Live) [8]: 97 % of Live
CD45 Count [8]: 1200000
MDSC Count [8]: 1000000
Treg Count [8]: 1300 and 870
CD8 (% of CD45) [9]: 0.75% and 0.5% and 0.28% and 0.31% (2×) and 0.061% and 0.32% and 0.45% and 0.81% and 0.33%
CD8 Count [9]: 33 and 40 and 26 and 9 and 36 and 270
CD45 (% of Live) [9]: 73%
Conv CD4 (% of CD45) [9]: 0.44% and 0.16% and 0.58% and 0.62% and 0.59%
Conv CD4 Count [9]: 54 and 93 and 140 and 23 and 50 and 670
M1 Mac Count [9]: 460 and 700
M2 Mac (% of CD45) [9]: 28%
MBSC (% of CD45) [9]: 25.1% and 32.8% and 42.5% and 44% and 83.3% and 20% and 70.4% and 37.3% and 10.4%
Treg (% of CD45) [9]: 0.55% and 0.32% and 0.62% and 0.16% and 0.54% and 0.21% and 0.42% and 0.6%
Treg Count [9]: 69 and 44 and 30 and 23 and 17 and 520
